Laboratory results reported in US20240051985A1, “METTL3 MODULATORS” (ACCENT THERAPEUTICS, INC., priority 2020, published 2024).
pIC50: −log10 of the molar value.

Experiments:
[1] = target: T1, FLT3 (Homo sapiens, UniProt P36888); assay: FLT3 Caliper assay; type: biochemical; details: Table 4; read-out: FLT3 Calipher assay IC50
T1 sequence (P36888 27-993): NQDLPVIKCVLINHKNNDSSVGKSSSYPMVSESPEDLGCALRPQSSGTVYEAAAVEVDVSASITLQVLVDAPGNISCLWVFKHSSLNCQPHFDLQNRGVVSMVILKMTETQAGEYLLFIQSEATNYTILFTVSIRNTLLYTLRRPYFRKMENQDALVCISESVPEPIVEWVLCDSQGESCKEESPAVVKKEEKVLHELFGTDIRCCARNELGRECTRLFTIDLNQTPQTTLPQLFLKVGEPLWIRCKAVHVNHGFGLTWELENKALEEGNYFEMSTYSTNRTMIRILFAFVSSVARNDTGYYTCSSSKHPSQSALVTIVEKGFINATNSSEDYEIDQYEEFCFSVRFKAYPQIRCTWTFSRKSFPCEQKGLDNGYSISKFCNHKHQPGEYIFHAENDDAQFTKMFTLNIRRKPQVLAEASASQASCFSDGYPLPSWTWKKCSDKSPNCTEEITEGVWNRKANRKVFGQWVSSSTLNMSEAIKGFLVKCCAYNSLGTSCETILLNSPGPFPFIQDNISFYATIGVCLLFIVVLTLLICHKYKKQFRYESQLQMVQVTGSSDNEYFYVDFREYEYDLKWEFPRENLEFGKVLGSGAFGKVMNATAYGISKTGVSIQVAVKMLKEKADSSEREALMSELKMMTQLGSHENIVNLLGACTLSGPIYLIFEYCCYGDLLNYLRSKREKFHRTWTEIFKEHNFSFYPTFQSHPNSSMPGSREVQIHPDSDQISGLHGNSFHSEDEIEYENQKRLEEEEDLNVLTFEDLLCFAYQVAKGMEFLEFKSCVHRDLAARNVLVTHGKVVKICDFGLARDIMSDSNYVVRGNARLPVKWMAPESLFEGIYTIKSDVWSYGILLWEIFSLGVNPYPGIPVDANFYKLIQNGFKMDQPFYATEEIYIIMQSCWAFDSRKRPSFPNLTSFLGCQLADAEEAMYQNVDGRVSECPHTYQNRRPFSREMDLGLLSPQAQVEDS
Experimental: (§1) FLT3/FLT3-ITD Caliper Assays
(§2) Assays were performed in a 20 μl-volume in 384-well polypropylene microplates (Perkin Elmer Proxiplate, cat. No. 6059480) at ambient temperature. Optimized 1× assay buffer was 50 mM Hepes pH 7.5, 2 mM DTT, 0.01% Tween, 0.01% BSA, 10 mM MgCl2. For compound screening FLT3 (final concentration, f.c.=0.9 nM) or FLT3-ITD (f.c.=7 nM) was added using a Multidrop Combi (ThermoFisher Scientific, Waltham, MA) and preincubated for 10 min. Reactions were started by adding fluorescein-peptide (sequence 5-FAM-EAIYAAPFAKKK-CONH2) (f.c.=300 μM) and ATP (FLT3 f.c.=97 μM FLT3-ITD f.c.=146 μM) substrates. Reactions proceeded for 60 minutes. The reactions were stopped with LabChip ProfilerPro Separation Buffer containing EDTA (f.c.=20 mM). The plates were read on a Caliper microfluidics reader (PerkinElmer, Waltham, MA).

[2] = target: T2, FLT3-ITD (Homo sapiens, UniProt P36888); assay: FLT3-ITD Caliper assay; type: biochemical; details: Table 4; read-out: FLT3-ITD Calipher assay IC50
T2 sequence (P36888 1-993): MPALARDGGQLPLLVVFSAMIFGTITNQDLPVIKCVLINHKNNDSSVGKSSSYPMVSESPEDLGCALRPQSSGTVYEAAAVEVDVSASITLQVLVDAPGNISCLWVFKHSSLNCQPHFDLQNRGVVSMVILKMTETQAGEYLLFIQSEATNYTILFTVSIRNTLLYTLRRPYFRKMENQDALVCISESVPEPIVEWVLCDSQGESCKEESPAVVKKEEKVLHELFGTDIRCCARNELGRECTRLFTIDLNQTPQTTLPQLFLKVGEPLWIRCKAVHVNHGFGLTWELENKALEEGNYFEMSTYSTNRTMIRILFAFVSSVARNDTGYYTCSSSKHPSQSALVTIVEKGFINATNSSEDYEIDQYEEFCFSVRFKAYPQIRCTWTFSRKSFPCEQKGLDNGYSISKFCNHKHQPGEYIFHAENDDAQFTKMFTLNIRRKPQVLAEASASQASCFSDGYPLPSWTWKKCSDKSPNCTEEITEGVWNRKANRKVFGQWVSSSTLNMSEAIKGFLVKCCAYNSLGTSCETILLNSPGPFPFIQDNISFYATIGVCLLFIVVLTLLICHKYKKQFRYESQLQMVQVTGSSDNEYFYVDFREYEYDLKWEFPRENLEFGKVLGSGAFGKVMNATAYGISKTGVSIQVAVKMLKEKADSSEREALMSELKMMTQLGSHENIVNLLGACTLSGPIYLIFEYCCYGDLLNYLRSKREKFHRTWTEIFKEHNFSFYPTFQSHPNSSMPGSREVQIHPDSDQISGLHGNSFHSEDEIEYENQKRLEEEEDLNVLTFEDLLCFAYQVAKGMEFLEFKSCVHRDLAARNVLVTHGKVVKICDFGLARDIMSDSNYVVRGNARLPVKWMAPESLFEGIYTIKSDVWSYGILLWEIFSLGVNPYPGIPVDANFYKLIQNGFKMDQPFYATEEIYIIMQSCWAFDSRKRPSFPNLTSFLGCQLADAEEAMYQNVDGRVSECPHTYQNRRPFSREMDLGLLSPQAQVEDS
Experimental: as §1, §2

[3] = target: PRMT5-MEP50 (Homo sapiens, UniProt O14744); assay: PRMT5 assay (3H-SAM flashplate); details: Table 4; PRMT5 biochemical assay
PRMT5-MEP50, sequence (O14744 whole entry): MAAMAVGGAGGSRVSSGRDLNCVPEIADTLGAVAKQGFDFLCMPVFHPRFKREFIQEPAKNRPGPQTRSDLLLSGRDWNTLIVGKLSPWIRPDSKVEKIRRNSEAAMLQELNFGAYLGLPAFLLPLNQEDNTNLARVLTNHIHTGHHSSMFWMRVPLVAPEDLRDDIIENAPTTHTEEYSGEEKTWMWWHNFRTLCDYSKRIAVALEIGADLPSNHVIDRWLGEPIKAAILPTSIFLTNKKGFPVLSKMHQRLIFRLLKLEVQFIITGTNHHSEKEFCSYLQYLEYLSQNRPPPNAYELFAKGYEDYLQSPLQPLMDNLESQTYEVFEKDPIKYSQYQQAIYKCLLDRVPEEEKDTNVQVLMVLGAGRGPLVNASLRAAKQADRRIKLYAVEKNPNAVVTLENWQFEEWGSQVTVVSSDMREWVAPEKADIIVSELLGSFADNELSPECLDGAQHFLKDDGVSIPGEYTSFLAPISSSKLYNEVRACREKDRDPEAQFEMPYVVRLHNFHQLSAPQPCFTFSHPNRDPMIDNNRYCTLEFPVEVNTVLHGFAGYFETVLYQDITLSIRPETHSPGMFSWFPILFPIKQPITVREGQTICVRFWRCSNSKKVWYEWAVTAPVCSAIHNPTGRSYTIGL
PRMT5-MEP50, sequence (Q9BQA1 whole entry partner): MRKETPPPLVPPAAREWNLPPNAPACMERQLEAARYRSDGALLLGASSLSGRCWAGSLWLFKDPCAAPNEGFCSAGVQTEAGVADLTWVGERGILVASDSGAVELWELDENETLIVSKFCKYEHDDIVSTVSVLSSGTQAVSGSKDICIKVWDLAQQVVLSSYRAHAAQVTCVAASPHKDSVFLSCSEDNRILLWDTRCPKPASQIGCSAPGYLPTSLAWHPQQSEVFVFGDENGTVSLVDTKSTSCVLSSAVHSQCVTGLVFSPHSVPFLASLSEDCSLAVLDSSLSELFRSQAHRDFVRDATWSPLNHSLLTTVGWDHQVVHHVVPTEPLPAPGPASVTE
How it was run: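 PRMT5-MEP50 at 2.5 nM, preincubated 5 min with compound in 20 mM Tris-HCl pH 8.0, 1 mM DTT, 0.01% Tween at ambient temperature. Biotinylated acetylated histone H4 peptide (100 nM) and 3H-SAM (250 nM) react 60 min, quenched with 15 μM cold SAM; methylation captured on streptavidin flashplates and scintillation-counted.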

[4] = target: METTL3/METTL14 (Homo sapiens, UniProt Q86U44); assay: METTL3-14 standard enzyme assay (3H-SAM flashplate); details: Table 4; METTL3 biochemical assay
METTL3/METTL14, sequence (Q86U44 whole entry, species assumed): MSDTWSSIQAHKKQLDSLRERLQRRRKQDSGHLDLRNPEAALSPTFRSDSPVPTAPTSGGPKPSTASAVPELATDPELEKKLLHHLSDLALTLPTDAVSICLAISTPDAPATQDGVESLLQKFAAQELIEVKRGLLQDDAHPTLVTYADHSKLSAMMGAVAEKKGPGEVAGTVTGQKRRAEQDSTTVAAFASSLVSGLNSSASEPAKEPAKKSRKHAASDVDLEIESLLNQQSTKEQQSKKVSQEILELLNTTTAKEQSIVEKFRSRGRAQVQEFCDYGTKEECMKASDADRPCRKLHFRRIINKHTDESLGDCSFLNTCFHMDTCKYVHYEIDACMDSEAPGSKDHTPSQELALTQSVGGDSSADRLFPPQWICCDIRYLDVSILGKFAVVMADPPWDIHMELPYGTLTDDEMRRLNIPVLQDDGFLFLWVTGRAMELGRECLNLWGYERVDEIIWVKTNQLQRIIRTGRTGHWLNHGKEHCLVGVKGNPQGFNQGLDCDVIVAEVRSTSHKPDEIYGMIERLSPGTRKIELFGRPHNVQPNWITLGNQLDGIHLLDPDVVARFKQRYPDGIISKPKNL
METTL3/METTL14, sequence (Q9HCE5 whole entry partner, species assumed): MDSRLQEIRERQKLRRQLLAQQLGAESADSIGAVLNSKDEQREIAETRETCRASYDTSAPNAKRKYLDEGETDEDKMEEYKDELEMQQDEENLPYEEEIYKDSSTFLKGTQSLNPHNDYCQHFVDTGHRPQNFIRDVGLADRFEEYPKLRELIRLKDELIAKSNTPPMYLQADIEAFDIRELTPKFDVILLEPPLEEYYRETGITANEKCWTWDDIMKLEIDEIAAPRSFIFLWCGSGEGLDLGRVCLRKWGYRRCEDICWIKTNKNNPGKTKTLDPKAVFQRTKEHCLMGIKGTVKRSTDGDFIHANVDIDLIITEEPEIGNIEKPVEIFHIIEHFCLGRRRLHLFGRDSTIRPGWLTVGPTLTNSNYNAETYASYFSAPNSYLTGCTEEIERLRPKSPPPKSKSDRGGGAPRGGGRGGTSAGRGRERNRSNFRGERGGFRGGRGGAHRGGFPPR
How it was run: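 METTL3/METTL14 (2.5 nM) preincubated 5 min, then reacted with 3′-biotinylated RNA UCUGGACUAAA (100 nM) and 3H-SAM (100 nM) for 30 min at ambient temperature in 20 mM HEPES pH 7.5, 50 mM KCl, 250 μM MgCl2, 1 mM DTT. Quenched with 15 μM cold SAM; product captured on streptavidin flashplates, scintillation counted.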

Cn1ccc(-c2cn([C@@H]3O[C@H](C(=O)Nc4ccnc(NC5CCC5)c4)[C@@H](O)[C@H]3O)c3ncnc(N)c23)n1 [Compound I-167]
pIC50 [1]: ≤ 6.00
pIC50 [2]: ≤ 6.00
pIC50 [3]: 6.00 to 7.00
pIC50 [4]: 6.00 to 7.00

Cn1ccc(-c2cn([C@@H]3O[C@H](C(=O)Nc4cc(N5CCC5)ccn4)[C@@H](O)[C@H]3O)c3ncnc(N)c23)n1 [Compound I-168]
pIC50 [1]: ≤ 6.00
pIC50 [2]: ≤ 6.00
pIC50 [3]: 7.00 to 8.00
pIC50 [4]: 6.00 to 7.00

Cn1ccc(-c2cn([C@@H]3O[C@H](C(=O)Nc4cc(NCC(F)F)ccn4)[C@@H](O)[C@H]3O)c3ncnc(N)c23)n1 [Compound I-169]
pIC50 [1]: ≤ 6.00
pIC50 [2]: ≤ 6.00
pIC50 [3]: 6.00 to 7.00
pIC50 [4]: 6.00 to 7.00

Cn1ccc(-c2cn([C@@H]3O[C@H](C(=O)Nc4cc[nH]n4)[C@@H](O)[C@H]3O)c3ncnc(N)c23)n1 [Compound I-170]
pIC50 [1]: 6.00 to 7.00
pIC50 [2]: 6.00 to 7.00
pIC50 [3]: ≤ 6.00
pIC50 [4]: ≤ 6.00

Cn1ccc(-c2cn([C@@H]3O[C@H](C(=O)Nc4ccon4)[C@@H](O)[C@H]3O)c3ncnc(N)c23)n1 [Compound I-171]
pIC50 [1]: ≤ 6.00
pIC50 [2]: ≤ 6.00
pIC50 [3]: ≤ 6.00
pIC50 [4]: ≤ 6.00

Cc1ccnc(NC(=O)[C@H]2O[C@@H](n3cc(-c4ccn(C)n4)c4c(N)ncnc43)[C@H](O)[C@@H]2O)c1 [Compound I-172]
pIC50 [1]: ≤ 6.00
pIC50 [2]: ≤ 6.00
pIC50 [3]: ≤ 6.00
pIC50 [4]: ≤ 6.00

Cn1ccc(-c2cn([C@@H]3O[C@H](C(=O)NC4CCNC(=O)C4)[C@@H](O)[C@H]3O)c3ncnc(N)c23)n1 (some centres unmarked) [Compound I-175]
pIC50 [1]: ≤ 6.00
pIC50 [2]: ≤ 6.00
pIC50 [3]: ≤ 6.00
pIC50 [4]: ≤ 6.00

Cn1ccc(-c2cn([C@@H]3O[C@H](C(=O)N4CCNCC4)[C@@H](O)[C@H]3O)c3ncnc(N)c23)n1 [Compound I-176]
pIC50 [1]: ≤ 6.00
pIC50 [2]: ≤ 6.00
pIC50 [3]: 6.00 to 7.00
pIC50 [4]: 6.00 to 7.00

Cn1ccc(-c2cn([C@@H]3O[C@H](C(=O)N[C@H]4CCC(=O)NC4)[C@@H](O)[C@H]3O)c3ncnc(N)c23)n1 [Compound I-179]
pIC50 [1]: ≤ 6.00
pIC50 [2]: ≤ 6.00
pIC50 [3]: ≤ 6.00
pIC50 [4]: ≤ 6.00

Cn1ccc(-c2cn([C@@H]3O[C@H](C(=O)N[C@@H]4CCC(=O)NC4)[C@@H](O)[C@H]3O)c3ncnc(N)c23)n1 [Compound I-180]
pIC50 [1]: ≤ 6.00
pIC50 [2]: ≤ 6.00
pIC50 [3]: ≤ 6.00
pIC50 [4]: ≤ 6.00

Cn1ccc(-c2cn([C@@H]3O[C@H](C(=O)NCCCN4CCCC4)[C@@H](O)[C@H]3O)c3ncnc(N)c23)n1 [Compound I-181]
pIC50 [1]: ≤ 6.00
pIC50 [2]: ≤ 6.00
pIC50 [3]: 7.00 to 8.00
pIC50 [4]: ≤ 6.00

Cn1ccc(-c2cn([C@@H]3O[C@H](C(=O)NC4CCOCC4)[C@@H](O)[C@H]3O)c3ncnc(N)c23)n1 [Compound I-182]
pIC50 [1]: ≤ 6.00
pIC50 [2]: ≤ 6.00
pIC50 [3]: 6.00 to 7.00
pIC50 [4]: ≤ 6.00

CN(C)CCCNC(=O)[C@H]1O[C@@H](n2cc(-c3ccn(C)n3)c3c(N)ncnc32)[C@H](O)[C@@H]1O [Compound I-183]
pIC50 [1]: ≤ 6.00
pIC50 [2]: ≤ 6.00
pIC50 [3]: 7.00 to 8.00
pIC50 [4]: ≤ 6.00

Cn1ccc(-c2cn([C@@H]3O[C@H](C(=O)NCc4cc(F)cc(F)c4)[C@@H](O)[C@H]3O)c3ncnc(N)c23)n1 [Compound I-191]
pIC50 [1]: ≤ 6.00
pIC50 [2]: ≤ 6.00
pIC50 [3]: 6.00 to 7.00
pIC50 [4]: 6.00 to 7.00

Cn1ccc(-c2cn([C@@H]3O[C@H](C(=O)NCCc4ccccc4)[C@@H](O)[C@H]3O)c3ncnc(N)c23)n1 [Compound I-192]
pIC50 [1]: ≤ 6.00
pIC50 [2]: ≤ 6.00
pIC50 [3]: 6.00 to 7.00
pIC50 [4]: 6.00 to 7.00

CNc1cccc(CCNC(=O)[C@H]2O[C@@H](n3cc(-c4ccn(C)n4)c4c(N)ncnc43)[C@H](O)[C@@H]2O)n1 [Compound I-193]
pIC50 [1]: ≤ 6.00
pIC50 [2]: ≤ 6.00
pIC50 [3]: ≤ 6.00
pIC50 [4]: 6.00 to 7.00

C[C@@H](NC(=O)[C@H]1O[C@@H](n2cc(-c3ccn(C)n3)c3c(N)ncnc32)[C@H](O)[C@@H]1O)C1CCNCC1 [Compound I-196]
pIC50 [1]: ≤ 6.00
pIC50 [2]: ≤ 6.00
pIC50 [3]: 6.00 to 7.00
pIC50 [4]: ≤ 6.00

Cn1ccc(-c2cn([C@@H]3O[C@H](C(=O)N[C@H]4CCc5nc(N)sc5C4)[C@@H](O)[C@H]3O)c3ncnc(N)c23)n1 [Compound I-197]
pIC50 [1]: ≤ 6.00
pIC50 [2]: ≤ 6.00
pIC50 [3]: ≤ 6.00
pIC50 [4]: 6.00 to 7.00

Cn1ccc(-c2cn([C@@H]3O[C@H](C(=O)NCC4(O)CCNCC4)[C@@H](O)[C@H]3O)c3ncnc(N)c23)n1 [Compound I-198]
pIC50 [1]: ≤ 6.00
pIC50 [2]: ≤ 6.00
pIC50 [3]: 7.00 to 8.00
pIC50 [4]: 6.00 to 7.00

Cn1ccc(-c2cn([C@@H]3O[C@H](C(=O)NN4CCCCC4)[C@@H](O)[C@H]3O)c3ncnc(N)c23)n1 [Compound I-199]
pIC50 [1]: ≤ 6.00
pIC50 [2]: ≤ 6.00
pIC50 [3]: 6.00 to 7.00
pIC50 [4]: ≤ 6.00

Cn1ccc(-c2cn([C@@H]3O[C@H](C(=O)N4CCNC(=O)C4)[C@@H](O)[C@H]3O)c3ncnc(N)c23)n1 [Compound I-204]
pIC50 [1]: ≤ 6.00
pIC50 [2]: ≤ 6.00
pIC50 [3]: ≤ 6.00
pIC50 [4]: ≤ 6.00

CCNc1cc(CNC(=O)[C@H]2O[C@@H](n3cc(-c4ccn(C)n4)c4c(N)ncnc43)[C@H](O)[C@@H]2O)ccn1 [Compound I-226]
pIC50 [1]: ≤ 6.00
pIC50 [2]: ≤ 6.00
pIC50 [3]: 6.00 to 7.00
pIC50 [4]: 6.00 to 7.00

CC(=O)N1CCC(CNC(=O)[C@H]2O[C@@H](n3cc(-c4ccn(C)n4)c4c(N)ncnc43)[C@H](O)[C@@H]2O)CC1 [Compound I-227]
pIC50 [1]: ≤ 6.00
pIC50 [2]: ≤ 6.00
pIC50 [3]: ≤ 6.00
pIC50 [4]: ≤ 6.00
